The results in this text go back to PubChem BioAssay AID1259407 (Chemical Carcinogenesis Research Information System (CCRIS), 2018).

Molecules are shown by their SMILES. Active and inactive are the calls of the source. The rule behind the calls is not given here.

The series deals with CCRIS mutagenicity, Ames/micronucleus/aberration tests. Put plainly: CCRIS mutagenicity studies.
Setting [1] is: Test System: AMES SALMONELLA TYPHIMURIUM, Strain/Indicator: TA98, Metabolic Activation: HAMSTER, LIVER, S-9, AROCLOR 1254 (10%), Method: PREINCUBATION
Where [2] appears, read: Test System: AMES SALMONELLA TYPHIMURIUM, Strain/Indicator: TA98, Metabolic Activation: NONE, Method: PREINCUBATION
The mark [3] stands for this setting: Test System: AMES SALMONELLA TYPHIMURIUM, Strain/Indicator: TA98, Metabolic Activation: NONE, Method: STANDARD PLATE.
The mark [4] stands for this setting: Test System: AMES SALMONELLA TYPHIMURIUM, Strain/Indicator: TA98, Metabolic Activation: RAT, LIVER, S-9, AROCLOR 1254 (10%), Method: PREINCUBATION
[5] abbreviates: Test System: AMES SALMONELLA TYPHIMURIUM, Strain/Indicator: TA98, Metabolic Activation: RAT, LIVER, S-9, AROCLOR 1254, Method: STANDARD PLATE.
Setting [6] is: Test System: AMES SALMONELLA TYPHIMURIUM, Strain/Indicator: TA100, Metabolic Activation: HAMSTER, LIVER, S-9, AROCLOR 1254 (10%), Method: PREINCUBATION
The mark [7] stands for this setting: Test System: AMES SALMONELLA TYPHIMURIUM, Strain/Indicator: TA100, Metabolic Activation: NONE, Method: PREINCUBATION
Where [8] appears, read: Test System: AMES SALMONELLA TYPHIMURIUM, Strain/Indicator: TA100, Metabolic Activation: NONE, Method: STANDARD PLATE.
Setting [9] is: Test System: AMES SALMONELLA TYPHIMURIUM, Strain/Indicator: TA100, Metabolic Activation: RAT, LIVER, S-9, AROCLOR 1254 (10%), Method: PREINCUBATION
The mark [10] stands for this setting: Test System: AMES SALMONELLA TYPHIMURIUM, Strain/Indicator: TA100, Metabolic Activation: RAT, LIVER, S-9, AROCLOR 1254, Method: STANDARD PLATE.
Where [11] appears, read: Test System: AMES SALMONELLA TYPHIMURIUM, Strain/Indicator: TA1535, Metabolic Activation: HAMSTER, LIVER, S-9, AROCLOR 1254 (10%), Method: PREINCUBATION
Where [12] appears, read: Test System: AMES SALMONELLA TYPHIMURIUM, Strain/Indicator: TA1535, Metabolic Activation: NONE, Method: PREINCUBATION
[13] abbreviates: Test System: AMES SALMONELLA TYPHIMURIUM, Strain/Indicator: TA1535, Metabolic Activation: RAT, LIVER, S-9, AROCLOR 1254 (10%), Method: PREINCUBATION
The mark [14] stands for this setting: Test System: AMES SALMONELLA TYPHIMURIUM, Strain/Indicator: TA1537, Metabolic Activation: HAMSTER, LIVER, S-9, AROCLOR 1254 (10%), Method: PREINCUBATION
Where [15] appears, read: Test System: AMES SALMONELLA TYPHIMURIUM, Strain/Indicator: TA1537, Metabolic Activation: NONE, Method: PREINCUBATION
[16] abbreviates: Test System: AMES SALMONELLA TYPHIMURIUM, Strain/Indicator: TA1537, Metabolic Activation: RAT, LIVER, S-9, AROCLOR 1254 (10%), Method: PREINCUBATION

With `Cl/C=C/Cl`, the mutagenic call reads like this: (End Point: IN VITRO CHROMOSOMAL ABERRATIONS, Test System: CHINESE HAMSTER LUNG (CHL), Metabolic Activation: NONE) “inactive; negative”; (End Point: IN VITRO CHROMOSOMAL ABERRATIONS, Test System: CHINESE HAMSTER LUNG (CHL), Metabolic Activation: RAT, LIVER, S-9, KC-400) “inactive; negative”; (Test System: AMES SALMONELLA TYPHIMURIUM, Strain/Indicator: TA97, Metabolic Activation: NONE, Method: STANDARD PLATE) “inactive; negative”; (Test System: AMES SALMONELLA TYPHIMURIUM, Strain/Indicator: TA97, Metabolic Activation: RAT, LIVER, S-9, AROCLOR 1254, Method: STANDARD PLATE) “active; positive”; (Test System: AMES SALMONELLA TYPHIMURIUM, Strain/Indicator: TA98, Metabolic Activation: HAMSTER LIVER S-9, AROCLOR 1254 (10%), Method: PREINCUBATION) “inactive; negative”; under setting [1], “inactive; negative”. Moreover, the mutagenic call runs as follows: under setting [2], “inactive; negative”; under setting [3], “inactive; negative”; (Test System: AMES SALMONELLA TYPHIMURIUM, Strain/Indicator: TA98, Metabolic Activation: RAT LIVER S-9, AROCLOR 1254 (10%), Method: PREINCUBATION) “inactive; negative”; under setting [4], “inactive; negative”; under setting [5], “active; positive”; (Test System: AMES SALMONELLA TYPHIMURIUM, Strain/Indicator: TA100, Metabolic Activation: HAMSTER LIVER S-9, AROCLOR 1254 (10%), Method: PREINCUBATION) “inactive; negative”. Also, the mutagenic call by setting is: under setting [6], “inactive; negative”; under setting [7], “inactive; negative”; under setting [8], “active; positive”; (Test System: AMES SALMONELLA TYPHIMURIUM, Strain/Indicator: TA100, Metabolic Activation: RAT LIVER S-9, AROCLOR 1254 (10%), Method: PREINCUBATION) “inactive; negative”; under setting [9], “inactive; negative”; under setting [10], “active; positive”. The mutagenic call reads like this: (Test System: AMES SALMONELLA TYPHIMURIUM, Strain/Indicator: TA104, Metabolic Activation: NONE, Method: STANDARD PLATE) “inactive; negative”; (Test System: AMES SALMONELLA TYPHIMURIUM, Strain/Indicator: TA104, Metabolic Activation: RAT, LIVER, S-9, AROCLOR 1254, Method: STANDARD PLATE) “inactive; negative”; (Test System: AMES SALMONELLA TYPHIMURIUM, Strain/Indicator: TA1535, Metabolic Activation: HAMSTER LIVER S-9, AROCLOR 1254 (10%), Method: PREINCUBATION) “inactive; negative”; under setting [11], “inactive; negative”; under setting [12], “inactive; negative”; (Test System: AMES SALMONELLA TYPHIMURIUM, Strain/Indicator: TA1535, Metabolic Activation: RAT LIVER S-9, AROCLOR 1254 (10%), Method: PREINCUBATION) “inactive; negative”. Also, the mutagenic call runs as follows: under setting [13], “inactive; negative”; (Test System: AMES SALMONELLA TYPHIMURIUM, Strain/Indicator: TA1537, Metabolic Activation: HAMSTER LIVER S-9, AROCLOR 1254 (10%), Method: PREINCUBATION) “inactive; negative”; under setting [14], “inactive; negative”; under setting [15], “inactive; negative”; (Test System: AMES SALMONELLA TYPHIMURIUM, Strain/Indicator: TA1537, Metabolic Activation: RAT LIVER S-9, AROCLOR 1254 (10%), Method: PREINCUBATION) “inactive; negative”; under setting [16], “inactive; negative”.

For `Cn1cnc(-c2ccccc2)c1[N+](=O)[O-]`, under setting [8], the mutagenic call was “active; positive”.

In the case of `CC(C)CCC[C@@H](C)[C@H]1CC[C@H]2[C@@H]3CC=C4C[C@@H](OC(=O)Cc5ccc(N(CCCl)CCCl)cc5)CC[C@]4(C)[C@H]3CC[C@]12C`, the mutagenic call is “inactive; negative” under setting [1]; “inactive; negative” under setting [2]; “inactive; negative” under setting [4]; “inactive; negative” under setting [6]; “inactive; negative” under setting [7]; “inactive; negative” under setting [9]. Moreover, the mutagenic call runs as follows: under setting [11], “inactive; negative”; under setting [12], “inactive; negative”; under setting [13], “inactive; negative”; under setting [14], “inactive; negative”; under setting [15], “inactive; negative”; under setting [16], “inactive; negative”.

`COc1cc(O)c2c(c1)C(=O)c1cc(C)cc(O)c1C2=O`: the mutagenic call under setting [3] was “inactive; negative”; the mutagenic call under setting [5] was “inactive; negative”; the mutagenic call under setting [8] is “inactive; negative”; the mutagenic call under setting [10] is “inactive; negative”; the mutagenic call (Test System: AMES SALMONELLA TYPHIMURIUM, Strain/Indicator: TA102, Metabolic Activation: RAT, LIVER, S-9, AROCLOR 1254, Method: STANDARD PLATE) was “inactive; negative”; the mutagenic call (Test System: AMES SALMONELLA TYPHIMURIUM, Strain/Indicator: TA1537, Metabolic Activation: NONE, Method: STANDARD PLATE) is “inactive; negative”. The mutagenic call (Test System: AMES SALMONELLA TYPHIMURIUM, Strain/Indicator: TA1537, Metabolic Activation: RAT, LIVER, S-9, AROCLOR 1254, Method: STANDARD PLATE) was “active; positive” and the mutagenic call (Test System: AMES SALMONELLA TYPHIMURIUM, Strain/Indicator: TA1537, Metabolic Activation: S-9, Method: STANDARD PLATE) was “active; positive”.

With `O=CN(O)c1ccc(Oc2ccccc2)cc1`, the mutagenic call was “inactive; negative” under setting [8] and “active; positive” (Test System: AMES SALMONELLA TYPHIMURIUM, Strain/Indicator: TA100, Metabolic Activation: RAT, LIVER, S-9, KANECLOR 500, Method: STANDARD PLATE).

`O=C1c2ccccc2-c2ccc3c4c(ccc1c24)-c1ccccc1C3=O`: the mutagenic call under setting [1] was “inactive; negative”; the mutagenic call under setting [2] was “inactive; negative”; the mutagenic call under setting [4] is “inactive; negative”; the mutagenic call under setting [6] is “inactive; negative”; the mutagenic call under setting [7] was “inactive; negative”; the mutagenic call under setting [9] was “inactive; negative”. In addition, the mutagenic call was “inactive; negative” under setting [11]; “inactive; negative” under setting [12]; “inactive; negative” under setting [13]; “inactive; negative” under setting [14]; “inactive; negative” under setting [15]; “inactive; negative” under setting [16]. For the setting “Test System: MOUSE LYMPHOMA, Strain/Indicator: L5178Y (TK+/TK-), Metabolic Activation: RAT, LIVER, S-9, AROCLOR, Method: SUSPENSION/PLATE”, the mutagenic call was “active; positive”.
